Patent US20240246942A1, “KINASE INHIBITORS FOR THE TREATMENT OF NEURODEGENERATIVE DISEASES” (priority 2020, published 2024)

How the values were obtained:
Assay in all cases: biochemical
[1] = biological target: T1, panel of 374 wild-type kinases (Homo sapiens, UniProt Q13237); conditions: read-out: % Enzyme Activity (relative to DMSO controls), kinase PKG2/PRKG2
T1 construct: purchased Reaction Biology Corporation
T1 sequence (Q13237 1-762): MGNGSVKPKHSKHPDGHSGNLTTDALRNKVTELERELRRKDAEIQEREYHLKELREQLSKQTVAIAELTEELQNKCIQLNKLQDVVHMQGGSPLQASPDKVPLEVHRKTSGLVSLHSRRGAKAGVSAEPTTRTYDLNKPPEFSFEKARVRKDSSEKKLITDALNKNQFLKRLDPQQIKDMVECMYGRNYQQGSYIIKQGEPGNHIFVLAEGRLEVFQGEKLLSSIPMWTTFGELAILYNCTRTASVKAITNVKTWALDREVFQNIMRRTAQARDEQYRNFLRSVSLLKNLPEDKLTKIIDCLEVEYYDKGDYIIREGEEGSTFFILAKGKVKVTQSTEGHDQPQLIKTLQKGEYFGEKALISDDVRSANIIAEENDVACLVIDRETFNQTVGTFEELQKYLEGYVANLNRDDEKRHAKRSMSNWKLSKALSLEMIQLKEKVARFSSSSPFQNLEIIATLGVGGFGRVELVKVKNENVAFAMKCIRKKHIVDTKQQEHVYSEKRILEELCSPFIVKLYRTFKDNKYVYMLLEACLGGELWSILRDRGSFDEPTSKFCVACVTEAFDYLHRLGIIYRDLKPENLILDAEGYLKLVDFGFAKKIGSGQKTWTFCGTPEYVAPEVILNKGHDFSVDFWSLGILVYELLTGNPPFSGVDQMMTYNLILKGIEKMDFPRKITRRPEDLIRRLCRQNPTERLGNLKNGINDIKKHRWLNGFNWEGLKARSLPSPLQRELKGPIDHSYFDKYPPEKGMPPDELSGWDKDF

[2] = biological target: T2, panel of 374 wild-type kinases (Homo sapiens, UniProt Q8WXR4); conditions: read-out: % Enzyme Activity (relative to DMSO controls), MYO3b
T2 construct: purchased Reaction Biology Corporation
T2 sequence (Q8WXR4 1-1341): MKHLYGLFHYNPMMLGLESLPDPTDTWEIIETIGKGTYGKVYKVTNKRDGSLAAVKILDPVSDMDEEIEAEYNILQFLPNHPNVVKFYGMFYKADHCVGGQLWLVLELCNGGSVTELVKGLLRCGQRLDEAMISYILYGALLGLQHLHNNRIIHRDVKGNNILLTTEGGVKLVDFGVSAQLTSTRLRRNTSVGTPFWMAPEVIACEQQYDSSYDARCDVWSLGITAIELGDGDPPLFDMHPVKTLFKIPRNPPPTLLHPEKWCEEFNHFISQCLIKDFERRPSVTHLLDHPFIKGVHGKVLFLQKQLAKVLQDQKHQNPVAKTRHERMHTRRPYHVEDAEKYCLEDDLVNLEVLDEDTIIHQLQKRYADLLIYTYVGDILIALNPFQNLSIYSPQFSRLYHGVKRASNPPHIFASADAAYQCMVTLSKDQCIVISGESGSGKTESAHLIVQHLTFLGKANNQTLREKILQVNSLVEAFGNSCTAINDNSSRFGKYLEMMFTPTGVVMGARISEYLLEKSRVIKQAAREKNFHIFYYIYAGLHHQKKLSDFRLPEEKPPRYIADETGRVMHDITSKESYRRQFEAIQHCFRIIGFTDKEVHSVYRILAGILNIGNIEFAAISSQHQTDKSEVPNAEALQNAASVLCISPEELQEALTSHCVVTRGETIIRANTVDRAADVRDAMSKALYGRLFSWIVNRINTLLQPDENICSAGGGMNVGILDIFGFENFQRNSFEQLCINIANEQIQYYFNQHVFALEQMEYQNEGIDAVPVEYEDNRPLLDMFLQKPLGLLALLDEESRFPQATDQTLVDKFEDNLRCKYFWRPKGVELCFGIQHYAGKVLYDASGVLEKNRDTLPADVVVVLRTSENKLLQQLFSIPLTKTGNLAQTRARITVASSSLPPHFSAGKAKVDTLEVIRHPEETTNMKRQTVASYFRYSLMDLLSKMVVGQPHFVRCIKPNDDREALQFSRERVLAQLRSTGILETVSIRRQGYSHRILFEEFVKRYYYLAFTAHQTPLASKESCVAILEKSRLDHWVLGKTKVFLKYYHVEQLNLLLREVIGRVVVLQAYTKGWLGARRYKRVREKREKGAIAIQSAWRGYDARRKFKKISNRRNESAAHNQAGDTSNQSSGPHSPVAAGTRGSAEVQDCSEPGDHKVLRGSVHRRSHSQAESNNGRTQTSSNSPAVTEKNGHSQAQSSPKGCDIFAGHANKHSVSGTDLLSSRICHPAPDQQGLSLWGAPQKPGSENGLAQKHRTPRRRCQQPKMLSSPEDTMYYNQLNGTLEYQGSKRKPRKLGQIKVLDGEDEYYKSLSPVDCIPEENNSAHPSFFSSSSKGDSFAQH

[3] = biological target: T3, panel of 374 wild-type kinases (Homo sapiens, UniProt Q9NYL2); conditions: read-out: % Enzyme Activity (relative to DMSO controls), kinase ZAK/MLTK
T3 construct: purchased Reaction Biology Corporation
T3 sequence (Q9NYL2 whole entry): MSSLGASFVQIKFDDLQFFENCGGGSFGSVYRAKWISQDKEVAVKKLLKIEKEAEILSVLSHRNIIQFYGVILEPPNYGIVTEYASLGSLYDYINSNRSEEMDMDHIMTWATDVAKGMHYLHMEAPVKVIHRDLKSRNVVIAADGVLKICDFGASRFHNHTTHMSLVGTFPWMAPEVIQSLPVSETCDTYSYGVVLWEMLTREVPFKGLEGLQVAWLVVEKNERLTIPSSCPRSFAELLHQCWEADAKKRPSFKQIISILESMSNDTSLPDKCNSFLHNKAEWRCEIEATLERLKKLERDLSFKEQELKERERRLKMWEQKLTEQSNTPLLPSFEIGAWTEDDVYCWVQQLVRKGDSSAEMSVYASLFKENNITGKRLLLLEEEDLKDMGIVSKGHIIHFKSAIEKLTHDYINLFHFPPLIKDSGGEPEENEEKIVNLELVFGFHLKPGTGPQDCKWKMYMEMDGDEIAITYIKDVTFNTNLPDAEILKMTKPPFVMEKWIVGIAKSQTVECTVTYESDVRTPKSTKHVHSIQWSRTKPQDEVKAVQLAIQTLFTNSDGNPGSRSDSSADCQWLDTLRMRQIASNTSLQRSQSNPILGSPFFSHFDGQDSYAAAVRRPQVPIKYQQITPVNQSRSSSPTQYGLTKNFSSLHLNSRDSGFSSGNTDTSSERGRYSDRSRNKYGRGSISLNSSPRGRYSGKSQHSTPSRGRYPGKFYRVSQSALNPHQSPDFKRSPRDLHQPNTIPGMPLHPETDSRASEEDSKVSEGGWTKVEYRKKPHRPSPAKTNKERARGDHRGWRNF

Row | Structure (SMILES) | remaining activity at 5 µM [1] | remaining activity at 5 µM [2] | remaining activity at 5 µM [3] | remaining activity at 10 µM ([1]; 10 uM) | remaining activity at 10 µM ([2]; 10 uM) | remaining activity at 10 µM ([3]; 10 uM)
1 | O=C(Nc1cnn(-c2csc(C(=O)NC3COC3)c2)c1)Nc1ccccc1Cl [Compound 17, 4-(4-(3-(2-chlorophenyl)ureido)-1H-pyrazol-1-yl)-N-(oxetan-3-yl)thiophene-2-carboxamide] | 101% | 128% | 101% | – | – | –
2 | Cc1sc(C(=O)NC2COC2)cc1-n1cc(NC(=O)Nc2c(F)cccc2Cl)cn1 [Compound 27, 4-(4-(3-(2-chloro-6-fluorophenyl)ureido)-1H-pyrazol-1-yl)-5-methyl-N-(oxetan-3-yl)thiophene-2-carboxamide] | – | – | – | 100% | 78.7% | 89.9%
3 | O=C(Nc1cnn(-c2csc(C(=O)NC3COC3)c2)c1)Nc1c(F)cccc1Cl [Compound 25, 4-(4-(3-(2-chloro-6-fluorophenyl)ureido)-1H-pyrazol-1-yl)-N-(oxetan-3-yl)thiophene-2-carboxamide] | 101% | 101% | 90.4% | – | – | –
